The values that follow are results of earlier work, collected in patent US8883831B2, “Compositions and methods for minimizing or reversing agonist-induced desensitization” (PharmoRx Therapeutics, Inc., priority 2008, dated 2014).

Data set [1] has as its target pentapeptide segment at the carboxy terminal of Filamin A (Homo sapiens, UniProt P21333). The following applies: read-out: binding affinity.
The subject of data set [2] is chronic pain model in intact rodents. The conditions noted are these: ultra-low dose, absence of exogenously administered opioid agonists.

pentapeptide segment at the carboxy terminal of Filamin A, sequence (P21333 whole entry): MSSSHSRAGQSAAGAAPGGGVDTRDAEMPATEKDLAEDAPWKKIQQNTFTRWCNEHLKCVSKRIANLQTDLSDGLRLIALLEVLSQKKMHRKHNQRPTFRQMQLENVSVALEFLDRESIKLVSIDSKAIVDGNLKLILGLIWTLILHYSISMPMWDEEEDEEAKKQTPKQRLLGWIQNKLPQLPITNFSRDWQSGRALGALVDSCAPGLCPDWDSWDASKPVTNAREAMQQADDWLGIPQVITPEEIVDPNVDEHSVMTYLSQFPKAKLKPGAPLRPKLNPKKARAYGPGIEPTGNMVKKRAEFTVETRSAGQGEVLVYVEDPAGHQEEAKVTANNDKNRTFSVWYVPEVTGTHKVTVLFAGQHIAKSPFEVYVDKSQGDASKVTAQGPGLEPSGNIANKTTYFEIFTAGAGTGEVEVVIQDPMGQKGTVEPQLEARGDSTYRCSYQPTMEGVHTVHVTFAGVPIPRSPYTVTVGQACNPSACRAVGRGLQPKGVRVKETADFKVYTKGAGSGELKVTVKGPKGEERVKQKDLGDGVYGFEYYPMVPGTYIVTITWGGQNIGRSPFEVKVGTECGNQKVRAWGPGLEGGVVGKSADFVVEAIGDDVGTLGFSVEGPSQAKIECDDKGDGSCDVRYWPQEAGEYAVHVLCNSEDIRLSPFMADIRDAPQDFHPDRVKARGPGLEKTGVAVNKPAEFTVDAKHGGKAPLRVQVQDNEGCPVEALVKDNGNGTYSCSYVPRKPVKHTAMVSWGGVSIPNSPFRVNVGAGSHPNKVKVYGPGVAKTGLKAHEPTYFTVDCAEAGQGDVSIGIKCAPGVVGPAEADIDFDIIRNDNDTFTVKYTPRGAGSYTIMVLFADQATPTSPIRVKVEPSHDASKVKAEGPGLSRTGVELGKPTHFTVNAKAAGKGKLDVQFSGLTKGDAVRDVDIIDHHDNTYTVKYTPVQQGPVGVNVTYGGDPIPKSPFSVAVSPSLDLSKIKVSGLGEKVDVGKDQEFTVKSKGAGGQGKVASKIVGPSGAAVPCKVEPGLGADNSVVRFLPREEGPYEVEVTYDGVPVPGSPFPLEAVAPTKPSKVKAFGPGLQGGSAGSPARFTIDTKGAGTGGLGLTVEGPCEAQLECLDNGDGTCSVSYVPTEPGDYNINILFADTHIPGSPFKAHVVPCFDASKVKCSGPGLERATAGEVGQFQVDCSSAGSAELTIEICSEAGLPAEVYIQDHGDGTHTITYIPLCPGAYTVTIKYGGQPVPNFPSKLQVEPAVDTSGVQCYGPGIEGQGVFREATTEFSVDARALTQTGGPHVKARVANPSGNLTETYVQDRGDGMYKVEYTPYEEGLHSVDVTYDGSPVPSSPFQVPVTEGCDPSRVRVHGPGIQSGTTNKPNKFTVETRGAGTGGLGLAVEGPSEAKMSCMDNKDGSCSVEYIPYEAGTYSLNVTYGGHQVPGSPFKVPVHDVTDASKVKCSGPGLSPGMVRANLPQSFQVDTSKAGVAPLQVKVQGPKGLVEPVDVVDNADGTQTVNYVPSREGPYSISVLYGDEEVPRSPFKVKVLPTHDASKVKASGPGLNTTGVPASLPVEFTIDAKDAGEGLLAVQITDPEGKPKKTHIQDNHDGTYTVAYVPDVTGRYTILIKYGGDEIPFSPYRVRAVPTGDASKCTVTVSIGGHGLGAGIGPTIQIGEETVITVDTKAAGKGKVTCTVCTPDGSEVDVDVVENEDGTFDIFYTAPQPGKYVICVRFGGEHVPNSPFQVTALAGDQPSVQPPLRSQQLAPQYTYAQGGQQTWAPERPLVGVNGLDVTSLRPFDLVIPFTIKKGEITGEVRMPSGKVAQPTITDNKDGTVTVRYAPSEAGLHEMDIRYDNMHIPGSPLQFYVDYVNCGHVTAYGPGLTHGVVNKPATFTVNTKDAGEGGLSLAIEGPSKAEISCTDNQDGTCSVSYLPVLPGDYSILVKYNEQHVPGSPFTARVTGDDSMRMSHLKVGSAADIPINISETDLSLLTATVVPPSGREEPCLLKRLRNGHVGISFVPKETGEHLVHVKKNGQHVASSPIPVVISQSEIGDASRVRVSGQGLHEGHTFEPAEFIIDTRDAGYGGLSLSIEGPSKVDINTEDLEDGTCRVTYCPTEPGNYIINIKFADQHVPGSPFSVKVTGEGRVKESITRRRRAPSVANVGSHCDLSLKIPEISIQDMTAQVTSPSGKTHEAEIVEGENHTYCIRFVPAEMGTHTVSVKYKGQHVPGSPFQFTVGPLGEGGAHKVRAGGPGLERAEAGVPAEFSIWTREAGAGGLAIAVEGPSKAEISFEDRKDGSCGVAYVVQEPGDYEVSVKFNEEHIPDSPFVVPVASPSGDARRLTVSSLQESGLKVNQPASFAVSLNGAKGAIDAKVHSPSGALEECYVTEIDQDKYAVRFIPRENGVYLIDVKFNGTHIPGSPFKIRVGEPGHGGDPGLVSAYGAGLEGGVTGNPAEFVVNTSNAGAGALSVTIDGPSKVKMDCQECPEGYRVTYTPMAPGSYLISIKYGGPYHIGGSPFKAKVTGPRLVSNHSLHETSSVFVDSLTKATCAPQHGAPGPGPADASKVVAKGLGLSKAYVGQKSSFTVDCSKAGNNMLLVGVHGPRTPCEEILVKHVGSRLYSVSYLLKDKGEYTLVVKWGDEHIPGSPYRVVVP

Turning to `O=C1CC[C@@]2(O)[C@H]3Cc4ccc(O)c5c4[C@@]2(CCN3CC2CC2)[C@H]1O5` [naltrexone], the Kd in data set [1] was 4 pM. The “effect in chronic pain model” value in data set [2] is “no effect”.
